Reference: article PMC10946275, “New imidazole-2-thiones linked to acenaphythylenone as dual DNA intercalators and topoisomerase II inhibitors: structural optimization, docking, and apoptosis studies” (Journal of Enzyme Inhibition and Medicinal Chemistry, 2024)

Experiments:
calf thymus DNA (ctDNA) = experiment: Terbium (Tb3+) luminescent biosensor detection of induced DNA damage; format: biochemical; settings: for Tb luminescence enhancement (induced DNA damage): ctDNA incubated with compound 24 h, emission 545 nm, excitation 270 nm, compared with ctDNA-Tb mixture
Source text: Luminescence studies were accomplished in order to examine the possible DNA interaction with the studied compounds. Many luminescent biosensors are reported in literature for studying the possibility of DNA interaction with small molecules. […] Figure 5 presents a schematic diagram for the fluorometric detection of the induced DNA damage using Tb biosensor. Tb^3+ ion in the Tb luminescent probe is a trivalent lanthanide cation having low intrinsic luminescence in aqueous solutions[45]^,[46]. When Tb biosensor is added to a solution of DNA, it interacts differently with double-stranded DNA (dsDNA) and single-stranded DNA (ssDNA). With dsDNA, Tb^3+ ions are electrostatically attracted to the negatively charged phosphate backbone of the DNA. […] Therefore, the assessed compound damages dsDNA, ssDNA sites would be formed opposite to the site of damage and Tb^3+ would directly coordinate to the unpaired nucleobases in this single-stranded site.
For investigating the DNA interaction potential of the fourteen studied compounds, calf thymus DNA (ctDNA) was incubated with each compound for 24 h and then Tb was added to each mixture. Doxorubicin (DOX), a commonly used reference for DNA damaging agent was used and treated the same condition as the studied compounds. Tb luminescent intensity was measured at λmax = 545 nm after excitation at λmax = 270 nm.
Several concentrations within the range of 0.1 pM–200.0 μM of each of the studied compounds were incubated with ctDNA for 24 h. After which, Tb solution was added to aliquots of such mixtures and the luminescence intensity was recorded. Figure 7 presents Tb luminescence intensity as a function of the compound concentration for various compound/ctDNA/Tb mixtures. At minimum concentration of the studied compounds, minimum Tb luminescence was recorded. This reflects that the DNA molecule is undamaged, intact and acquiring a double helical structure. In this conformation, Tb ions are electrostatically attracted to the negatively charged DNA-phosphate backbone showing no increase in its luminescence. For solutions with higher concentrations of compounds 5b, 5h, and 5j (Figure 7a,c,and d). Tb fluorescence increased proportionally with the concentration until a concentration of 100 and 60 μM for compounds 5b, 5h, and 5j, respectively, where no further increase in the fluorescence occurs. This reflects that more DNA damage is induced with increasing concentrations of the three compounds. At concentrations higher than 100 and 60 μM for compounds 5b, 5h, and 5j, respectively, Tb luminescence remains constant at high fluorescence levels. […] Table 1 illustrates the analytical parameters elucidated as shown in Figure 7 for the quantification of the induced DNA damage by the studied compounds. The linearity parameters were calculated from the calibration curve in Figure 7-inset in order to obtain the minimum concentration of the studied compounds that would induce DNA damage.
Fluorescence measurements: Fluorescence spectra were measured between 290 and 800 nm with excitation at 270 nm of 100 µL solutions in a 1 cm path length Suprasil quartz fluorescence cuvette.
The PerkinElmer LS 55 fluorescence spectrophotometer was used to measure the fluorescence. After 24 h of incubation in buffer solution (40 mM Tris, 10 mM NaCl, pH 7.5), aliquots of each DNA-Compound mixture were combined with TbCl3 to confirm DNA damage. The final concentrations were […] ctDNA, 3 mM TbCl3, and 50 µM of each compound in buffer solution (40 mM Tris, 10 mM NaCl, pH 7.5). Calf thymus DNA (ctDNA) was combined with various quantities of each substance, ranging from 0.1 pM to 200 µM, for the experiment. The ultimate concentrations of […] ctDNA and 3 mM were achieved by adding Tb3 + solution to the ctDNA/compound combinations in buffer solution (40 mM Tris, 10 mM NaCl, pH 7.5) after 24 h of incubation.[44]
All chemicals, solvents, media and kits were purchased from commercial suppliers. […]

[1] = test system: hepatocellular carcinoma (HepG2); experiment: MTT cytotoxicity assay, HepG2; format: cell-based; settings: Homo sapiens, 24 h treatment, read-out: IC50 against HepG2
Protocol: (§1) (Supplementary file). Compounds 5b and 5h were screened for their effects on the normal breast cell line MCF‐10a. Cells at a density of 1 × 104 were seeded in a 96‐well plate at 37 °C for 48 h under 5% CO2. After incubation, the cells were treated with different concentrations of the prepared molecules and incubated for 24 h. MTT dye was added after 24 h of drug treatment and incubated for 4 h at 37 °C. Also, 100 μl of dimethyl sulphoxide was added to each well to dissolve the purple formazan formed. The colour intensity of the formazan product, which represents the growth condition of the cells, was quantified using an enzyme‐linked immunosorbent assay (ELISA) plate reader at 570 nm. The experiments were carried out with at least three replicates and they were repeated at least three times.
(§2) All chemicals, solvents, media and kits were purchased from commercial suppliers.
(§3) In vitro anticancer screening […]
(§4) against three cancer cell lines namely: hepatocellular carcinoma (HepG2), human breast adenocarcinoma (MCF-7) and human colon cancer (HCT -116) utilizing MTT assay2. Compounds […]
(§5) 5b and 5h were screened for their effects on the normal breast cell line MCF‐10a. Cells at a density of 1 × 104 were seeded in a 96‐well plate at 37°C for 48 hr under 5% CO2. After incubation, the cells were treated with different concentrations of the prepared molecules and incubated for 24 hr.
(§6) MTT dye was added after 24 h of drug treatment and incubated for 4 h at 37°C. Also, 100 μl of dimethyl sulphoxide was added to each well to dissolve the purple formazan formed. The color intensity of the formazan product, which represents the growth condition of the cells, was quantified using an enzyme‐linked immunosorbent assay (ELISA) plate reader at 570 nm. The experiments were carried out with at least three replicates and they were repeated at least three […]
(§7) *: Statistically significant at p ≤ 0.05
(§8) Means with any Common letter (a-e) are not significant (OR Means with totally Different letters (a-e) are significant)

[2] = test system: human colon cancer (HCT-116); experiment: MTT cytotoxicity assay, HCT-116; format: cell-based; settings: 24 h treatment, read-out: IC50 against HCT-116
Protocol: as §2, §3, §4, §5, §6, §7, §8

[3] = test system: human breast adenocarcinoma (MCF-7); experiment: MTT cytotoxicity assay, MCF-7; format: cell-based
Protocol: as §1, §2, §3, §4, §5, §6, §7, §8

MCF-7 cells [4] = experiment: Cell cycle analysis (DNA flow cytometry, PI)
Protocol: Cell cycle analysis: A FACS Calibur flow cytometer was used to measure the amount of DNA in the cell cycle analysis at 488 nm in accordance with the manufacturer’s recommendations. […] Cells were treated, rinsed twice, and then re-suspended in ice-cold PBS (phosphate buffer saline). After washing, 0.7 ml of 100% ethanol was added, and the mixture was then allowed to sit at 20 °C for 20 min. After washing, 500 μl of RNase was added, and then the mixture was incubated for 30 min. After that, PI was added, and the mixture was incubated without light for 30 min[22]^,[51].
3 Replica for each group Data was expressed using Mean ± SEM.
SEM: Standard error of mean
F: F for One way ANOVA test, Pairwise comparison bet. each 2 groups was done using Post Hoc Test (Tukey)
p: p value for comparing between the studied groups
p0: p value for comparing between Control and each other group
p1: p value for comparing between 5h and 5b
p2: p value for comparing between 5h and Dox
p3: p value for comparing between 5b and Dox
DNA content in the cell cycle analysis was quantified with the help ofa FACS Calibur flow
cytometer at 488 nm according to the manufacturer's instructions. Briefly, 2 × 10^5 cells/well were
cells were washed two times and resuspended in ice-cold phosphate buffer saline PBS. After
washing, 0.7 ml absolute ethanol was then added, followed by incubation at −20°C for 20 min.
After washing, 500 μl RNase was added, followed by incubation for 30 min. PI was then added,
followed by incubation for 30 min (light was avoided).

MCF-7 cells [5] = experiment: Annexin V-FITC/PI apoptosis induction analysis (flow cytometry); format: cell-based, human; settings: MCF-7, compound at its IC50, 24 h
[6] = test system: normal breast cell line (MCF-10a); experiment: MTT cytotoxicity assay, normal breast cell line MCF-10a; format: cell-based; settings: Homo sapiens, 24 h treatment, read-out: IC50 against MCF-10a (normal cell)
Protocol: as §1, §5, §6, §7
Means with any Common letter (a-e) are not significant (OR Means with totally Different letters (a-e) are significant) Annexin V-FITC/PI Apoptosis Induction Analysis 3
Apoptosis detection in MCf-7 cells was assessed using BioVision® annexin‐V‐FITC apoptosis detection kit according to the manufacturer's instructions and quantified by flow cytometry at 488

[7] = MCF-7, compound at its IC50, 24 h, listed as Dox

## Cn1c(-c2ccccc2)cn(N=C2C(=O)c3cccc4cccc2c34)c1=S [5a, 2-((3-Methyl-4-phenyl-2-thioxo-2,3-dihydro-1H-imidazol-1-yl)imino)acenaphthylen-1(2H)-one]
other
  melting point: 220 to 222 °C

## O=C1C(=Nn2cc(-c3ccccc3)n(Cc3ccccc3)c2=S)c2cccc3cccc1c23 [5c, 2-((3-Benzyl-4-phenyl-2-thioxo-2,3-dihydro-1H-imidazol-1-yl)imino)-acenaphthylen-1(2H)-one]
other
  melting point: 212 to 214 °C

## O=C1C(=Nn2cc(-c3ccccc3)n(C3CCCCC3)c2=S)c2cccc3cccc1c23 [5d, 2-((3-Cyclohexyl-4-phenyl-2-thioxo-2,3-dihydro-1H-imidazol-1-yl)imino)-acenaphthylen-1(2H)-one]
other
  melting point: 192 to 194 °C

## COc1cccc(-n2c(-c3ccccc3)cn(N=C3C(=O)c4cccc5cccc3c45)c2=S)c1 [5e, 2-((3-(3-Methoxyphenyl)-4-phenyl-2-thioxo-2,3-dihydro-1H-imidazol-1-yl)imino)-acenaphthylen-1(2H)-one]
Calf thymus DNA (ctDNA)
  Tb luminescence enhancement (induced DNA damage): significant enhancement
Calf thymus DNA (ctDNA); ctDNA, 24 h incubation
  Concentration at which Tb luminescence stops increasing (maximum DNA damage): 80 µM
  Concentration up to which no enhancement of Tb luminescence intensity occurs: 20 µM
  LOD (limit of detection; minimum concentration inducing detectable damage in ctDNA): 14.2 nM
  LOQ (limit of quantitation): 46.9 nM
other
  melting point: 212 to 214 °C

## C=CCn1c(-c2ccccc2)cn(N=C2C(=O)c3cccc4cccc2c34)c1=S [5f, 2-((3-Allyl-4-phenyl-2-thioxo-2,3-dihydro-1H-imidazol-1-yl)imino)acenaphthylen-1(2H)-one]
Calf thymus DNA (ctDNA)
  Tb luminescence enhancement (induced DNA damage): minimum enhancement
other
  melting point: 212 to 214 °C

## Cn1c(-c2ccc(Cl)cc2)cn(N=C2C(=O)c3cccc4cccc2c34)c1=S [5g, 2-((4–(4-Chlorophenyl)-3-methyl-2-thioxo-2,3-dihydro-1H-imidazol-1-yl)imino)-acenaphthylen-1(2H)-one]
other
  melting point: 262 to 264 °C

## O=C1C(=Nn2cc(-c3ccc(Cl)cc3)n(Cc3ccccc3)c2=S)c2cccc3cccc1c23 [5i, 2-((3-Benzyl-4-(4-chlorophenyl)-2-thioxo-2,3-dihydro-1H-imidazol-1-yl)imino)-acenaphthylen-1(2H)-one]
other
  melting point: 260 to 262 °C

## COc1cccc(-n2c(-c3ccc(Cl)cc3)cn(N=C3C(=O)c4cccc5cccc3c45)c2=S)c1 [5j, 2-((4-(4-Chlorophenyl)-3-(3-methoxyphenyl)-2-thioxo-2,3-dihydro-1H-imidazol-1-yl)-imino)acenaphthylen-1(2H)-one]
[1]
  IC50: 7.9 µM
Calf thymus DNA (ctDNA)
  Tb luminescence enhancement (induced DNA damage): significant enhancement
Calf thymus DNA (ctDNA); ctDNA, 24 h incubation
  Concentration at which Tb luminescence stops increasing (maximum DNA damage): 60 µM
  LOD (limit of detection; minimum concentration inducing detectable damage in ctDNA): 12.7 nM
  LOQ (limit of quantitation): 42.4 nM
[2]
  IC50: 10.8 µM
other
  melting point: 282 to 284 °C

## C=CCn1c(-c2ccc(Cl)cc2)cn(N=C2C(=O)c3cccc4cccc2c34)c1=S [5k, 2-((3-Allyl-4-(4-chlorophenyl)-2-thioxo-2,3-dihydro-1H-imidazol-1-yl)imino)-acenaphthylen-1(2H)-one]
Calf thymus DNA (ctDNA)
  Tb luminescence enhancement (induced DNA damage): minimum enhancement
other
  melting point: 262 to 264 °C

## Cn1c(-c2ccc3ccccc3c2)cn(N=C2C(=O)c3cccc4cccc2c34)c1=S [5l, 2-((3-Methyl-4-(naphthalen-2-yl)-2-thioxo-2,3-dihydro-1H-imidazol-1-yl)imino)-acenaphthylen-1(2H)-one]
other
  melting point: 240 to 242 °C

## O=C1C(=Nn2cc(-c3ccc4ccccc4c3)n(Cc3ccccc3)c2=S)c2cccc3cccc1c23 [5m, 2-((3-Benzyl-4-(naphthalen-2-yl)-2-thioxo-2,3-dihydro-1H-imidazol-1-yl)imino)-acenaphthylen-1(2H)-one]
other
  melting point: 332 to 334 °C

## C=CCn1c(-c2ccc3ccccc3c2)cn(N=C2C(=O)c3cccc4cccc2c34)c1=S [5n, 2-((3-Allyl-4-(naphthalen-2-yl)-2-thioxo-2,3-dihydro-1H-imidazol-1-yl)imino)-acenaphthylen-1(2H)-one]
Calf thymus DNA (ctDNA)
  Tb luminescence enhancement (induced DNA damage): minimum enhancement
other
  melting point: 230 to 232 °C

## COc1cccc2c1C(=O)c1c(O)c3c(c(O)c1C2=O)C[C@@](O)(C(=O)CO)C[C@@H]3O[C@H]1C[C@H](N)[C@H](O)[C@H](C)O1 [doxorubicin, reference compound]
[3]; Homo sapiens, MCF7, MTT, 24 h treatment, read-out: IC50 against MCF-7
  IC50: 8.24 µM
[3]; against MCF-7, relative to normal MCF-10a
  Selectivity Index (SI): 3.9
Calf thymus DNA (ctDNA)
  Tb luminescence enhancement (induced DNA damage): significant enhancement
Calf thymus DNA (ctDNA); ctDNA, 24 h incubation
  LOD (limit of detection; minimum concentration inducing detectable damage in ctDNA): 4.09 nM
  LOQ (limit of quantitation): 13.7 nM
MCF-7 cells [4]; MCF-7, compound at its IC50
  Phase of cell cycle arrest: G1/S phase
MCF-7 cells [4]; [7]
  Cell cycle arrest (%) G0-G1: 63.5 ± 0.51%
  Cell cycle arrest (%) G2/M: 2.4 ± 0.73%
  Cell cycle arrest (%) S: 34.2 ± 0.22%
MCF-7 cells [5]
  Apoptosis results: Early apoptosis: 8.3 ± 0.53%
  Apoptosis results: Late apoptosis: 31.3 ± 0.62%
  Apoptosis results: Total: 46.2 ± 0.53%
MCF-7 cells [5]; listed as Dox
  Apoptosis results: Early apoptosis: 8.3 ± 0.53%
  Apoptosis results: Late apoptosis: 31.3 ± 0.62%
  Apoptosis results: Necrosis: 6.6 ± 0.61%
[6]
  IC50: 32.4 µM
